Data reported in patent US20220409526A1 (Retina Foundation Of The Southwest, priority 2019, published 2022).

Tests used:
ARPE-19 cells [1] = test: GSH assay (Promega GSH/GSSG-Glo); assay type: cell-based, human; conditions: 1 mM for 24 hours
Procedure: The production of cellular GSH levels upon exposure to drugs were measured using the GSH assay kit. NACA and GSH-EE were used as controls in this assay. ARPE-19 cells were grown in white 96 well plates. The cells were exposed to 1 mM solutions of NAC, NACME, NACEE, NACPE, NACBE, NACA and glutathione ethyl ester (GSH-EE) for 24 hours. The solutions were removed and washed with PBS once. Afterwards, GSH assay was carried out according to manufacturer recommended protocol (Promega GSH/GSSG-Glo™) and luminescence readings were obtained with a luminometer, which a higher luminescence intensity indicates a higher GSH concentration.

ARPE-19 cells [2] = test: in vitro; assay type: cell-based, human
Procedure: (§1) ARPE-19 cells were grown in DMEM:F-12 supplemented with 10% fetal bovine serum (FBS). For all experiments these cells were split and grown in 6-well plates using MEM-Nic supplemented with 1% FBS according to a previously published procedure.^33 Cells used for all the experiments were between passages 25-30. For all experiments, the 96 well plates and 8-well slides were coated with 0.039 mg/mL collagen I at 6 μg/cm^2. The cells were seeded at a cell density of 70,000 cells/well and 150,000 cells/well using MEM-Nic media for 96 well plates and 8 well slides, respectively. Once the cells are confluent, media was replaced with MEM a, GlutaMAX™, supplemented with 1% FBS for 24 hours before carrying out assay protocols. Exposure to NAC alkyl-ester prodrugs were carried out in MEM a, GlutaMAX™, supplemented with 1% FBS and treatment with HQ was carried out in serum free DMEM:F-12.
(§2) ARPE-19 Cell viability assays were carried out using XTT/PMS reagent mixtures according to standard procedures known in the art (see Celis, J. E.; Carter, N., Cell Biology: A Laboratory Handbook. Elsevier Science: 2005). Corresponding absorbance readings were obtained using a plate reader at 450 and 660 nm.
(§3) A dose dependent study was first carried out for ARPE-19 cells using HQ concentrations varying from 100-1000 μM. Cells were then incubated at 37° C., 5% CO2 for 16 hours. HQ doses of less than 400 μM were non-lethal. Using 500 μM HQ for 16 hours gave a cell viability of ˜60%.
(§4) To evaluate the ability of the NAC alkyl-ester analogues to provide cellular protection against oxidative stress, cells were treated with 0.05 mM of NAC, NACME, NACEE, NACPE and NACBE for 2, 24 and 48 hours. Treated cells were then exposed to 500 μM HQ for 16 hours. HQ solutions were removed and replaced with DMEM:F-12 supplemented with 1% FBS, and followed by the addition of XTT (2,3-bis-(2-methoxy-4-nitro-5-sulfophenyl)-2H-tetrazolium-5-carboxanilide) and PMS (phenazine methyl sulfate).
(§5) To compare the effectiveness of NACBE and NAC in protecting against oxidative damage, another dose dependent study was carried out by varying the pretreatment concentration from 0.001 mM to 1.0 mM. […] Whereas for NAC, to reach the same cell viability, 0.5 mM concentration was needed (10× times that of NACBE).

ARPE-19 cells [3] = test: JC-1 staining (confocal); conditions: 1 mM pretreatment for 24 hours, then 50 μM HQ for 4 hours
From the text: The cells were imaged on the confocal (Zeiss LSM 800) by excitation with the 488 nm laser and emission imaged at 530 nm (green channel) and 590 nm (red channel).

ARPE-19 cells [4] = test: ZO-1 staining of cellular junctions; assay type: cell-based, human
Procedure: ARPE-19 cells were grown on an 8-well slide until confluent. The cells were exposed to 1 mM NAC and NACBE for 24 hours, followed by treatment with 500 μM of HQ for 2 hours. The cells were washed with 3 cycles of PBS, and then fixed with 4% Paraformaldehyde at 4° C. for 30 mins. After fixation the cells were blocked in PBST (0.2% Triton X-100)+1% BSA for 60 mins. Primary antibody (rabbit anti-Zo-1, Invitrogen) was diluted 1/100 in PBST+1% BSA and added overnight at […]. Cells were washed ×3 with PBS and secondary antibody (Donkey anti-Rabbit AF-555, Abcam) was added for 4 hours at RT. Cells were washed ×3 with PBS and mounted with Prolong Diamond Mountant with DAPI (Invitrogen).

ARPE-19 cells [5] = test: HPLC analysis of cellular uptake and conversion to NAC; assay type: in vitro ADME, human; conditions: 1 mM for 1 hour in HBSS
Procedure: ARPE-19 cells were seeded onto a 60 cm^2 dish and was allowed to grow to confluency. The cells were treated with 1 mM NAC and NACBE for 1 hour in HBSS. The drug solution was aspirated and washed twice with HBSS. The cells were scraped with the aid of methanol (˜1 mL) and collected into 2 mL centrifuge tubes. The cell suspension in methanol was sonicated (for cell lysis) in a water bath for 30 minutes and was centrifuged at 14,000 RPM for 15 minutes. The supernatant was transferred to a HPLC vial and methanol was evaporated under a stream of nitrogen.
The sample was resuspended in 50 μL of methanol before injecting into the HPLC system. Samples and standard (20 μL) were injected with an autosampler. Separation was conducted by 0.8 mL/min gradient elution with a water/0.10% formic acid and acetonitrile mobile phase on a 250×4.6-mm ([…]) C18 column (Restek, Pinnacle II) maintained at 25° C. The samples were monitored at 205 nm with a UV detector and analyzed with Agilent Chemstation software.

ARPE-19 cells [6] = test: CellTiter-Glo assay (ATP); assay type: cell-based, human
Procedure: ARPE-19 cells were grown in white 96 well plates. The cells were first exposed to 500 μM of HQ for 3, 6 and 8 hours and the amount of ATP produced was measured using the CellTiter-Glo assay kit to obtain a time dependent response (FIG. 15). […] Due to the mitochondrial damage caused by HQ, the production of ATP was decreased.

[7] = system: mitochondrial DNA of ARPE-19 cells; test: DNA fragmentation assay (long-extension PCR of mitochondrial DNA); assay type: cell-based, human
Procedure: Mitochondrial DNA damage has been linked to pathogenic diseases, including AMD. To determine if pretreatment of RPE cells with NAC alkyl-ester analogues could protect mitochondrial DNA against oxidative damage, a long-extension PCR based assay was used to measure amplification of a large stretch of mitochondrial DNA. The mitochondrial DNA damage assay was performed according to protocols known to those in the art (see Santos, J. H.; Mandavilli, B. S.; Van Houten, B., Measuring Oxidative mtDNA Damage and Repair Using Quantitative PCR. In Mitochondrial DNA: Methods and Protocols, Copeland, W. C., Ed. Humana Press: Totowa, N.J., 2002; pp 159-176). Briefly, ARPE-19 cells were grown to confluency in 6-well plates. The cells were treated with NAC alkyl-ester analogues for 24 hours, washed and then treated with 500 uM HQ for an additional 24 hours. DNA was isolated from the treated cells with a QIAamp DNA mini kit (Qiagen). The DNA samples were diluted to 3 ng/μl for use in PCR reactions. PCR products were quantified using the Quant-iT Picogreen dsDNA Assay kit (Invitrogen). The relative amplification of the large band was normalized to untreated cells. The amplification of the small mitochondrial band was used to normalize the data obtained from the large band to account for mitochondrial DNA copy number.

in vitro = assay type: cell-based, human; conditions: human
Procedure: as §1, §2, §3, §4, §5

ARPE-19 cells [8] = test: JC-1 assay (mitochondrial membrane potential); assay type: cell-based, human; conditions: 50 μM HQ for 4 hours, compared to the control
Procedure: JC-1 assays measuring the change in mitochondrial membrane potential were carried out to evaluate the protection of the NAC alkyl-ester analogues towards mitochondrial damage.
Typically, JC-1 dye has an inherent green fluorescence at 530 nm. Upon reaching the cell, due to the structural properties of the dye, it will accumulate in the mitochondria making aggregates known as J-aggregates. These J-aggregates consists of a red shifted fluorescence (590 nm). Damaged or unhealthy mitochondria, due to their depolarized membrane potential (compared to healthy ones), will have lesser amounts of aggregates and thus will have low intensity of red emission. Cells with healthy mitochondria will have a more prominent red fluorescence than that in cells with damaged/unhealthy mitochondria due to the ability in forming J-aggregates.
ARPE-19 cells were grown in black, clear bottom 96 well plates. […] With increasing time and dose of HQ, a drop in 590 nm/530 nm fluorescence is seen due to the depolarization of the mitochondria.
Next, to assess the effect of NAC alkyl-ester analogues on oxidative damage in mitochondria (FIG. 12B), ARPE-19 cells were pretreated with 1 mM NAC, NAC alkyl-ester analogues, NACA, GSH-EE and 1 μM MitoQ for 1 and 24 hours. […] The JC-1 solution was removed and washed once with PBS and fluorescence measurements were obtained in PBS at 485 nm excitation and emission at 535 nm and 590 nm. […]

CCOC(=O)[C@H](CS)NC(C)=O [NACEE, N-acetylcysteine ethyl ester]
cellular GSH level (luminescence) compared to untreated cells (ARPE-19 cells [1]): produced the highest amounts of GSH

CCOC(=O)CNC(=O)[C@H](CS)NC(=O)CC[C@H](N)C(=O)O [GSH-EE, glutathione ethyl ester]
cellular GSH level (luminescence) compared to untreated cells (ARPE-19 cells [1]): did not produce any significant GSH

CC(=O)N[C@@H](CS)C(=O)O [NAC, N-acetylcysteine]
concentration needed for 100% cell viability relative to NACBE (ARPE-19 cells [2]; NAC 0.5 mM versus NACBE 0.05 mM): 10 × | pretreatment concentration at which 100% cell viability was obtained (ARPE-19 cells [2]; pretreatment 0.001-1.0 mM for 24 hours, then 500 μM HQ for 16 hours): 0.5 mM | mitochondrial membrane potential after HQ (JC-1 staining) (ARPE-19 cells [3]): did not help to retain mitochondrial depolarization | ZO-1 staining of cell-cell junctions (ARPE-19 cells [4]; 1 mM for 24 hours, without HQ): proper cell-cell junctions | ZO-1 staining of cellular junctions after exposure to HQ (ARPE-19 cells [4]; 1 mM pretreatment for 24 hours, then 500 μM HQ for 2 hours): diminished or was completely absent | compound and metabolite detected within the cells by HPLC (ARPE-19 cells [5]): no NAC was detected | cellular GSH level (luminescence) compared to untreated cells (ARPE-19 cells [1]): did not produce any significant GSH | ATP production after HQ insult (ARPE-19 cells [6]; 1 mM pretreatment, then 500 μM HQ for 3, 6 and 8 hours): some protection | protection of mitochondrial DNA amplification against HQ ([7]; pretreatment for 24 hours (1 mM), then 500 uM HQ for 24 hours): did not show any signs of protection

CC(=O)N[C@@H](CS)C(N)=O
cellular GSH level (luminescence) compared to untreated cells (ARPE-19 cells [1]): did not produce any significant GSH

CCCOC(=O)[C@H](CS)NC(C)=O [NACPE, N-acetylcysteine propyl ester]
cellular GSH level (luminescence) compared to untreated cells (ARPE-19 cells [1]): produced the highest amounts of GSH

Oc1ccc(O)cc1 [HQ, hydroquinone]
non-lethal HQ doses (ARPE-19 cells [2]; human, 16 h): less than 400 μM | viability at 16 h, 500 μM (in vitro): ~60% | mitochondrial depolarization (590 nm/530 nm fluorescence) (ARPE-19 cells [8]): moderate depolarization | level of ATP (ARPE-19 cells [6]; 500 μM HQ for 3, 6 and 8 hours): the level of ATP decreased | amplification of mitochondrial DNA ([7]; 500 uM HQ for 24 hours): drastically reduced the amplification of mitochondrial DNA
